≈ marks a conversion by molar mass, not a printed value. Entries after “also recorded” stand apart in the source; their conditions may differ. Counter-ions that a name gives are not always drawn.
Assays:
Format in all cases: physicochemical
[1] = Chemical stability studies of Compound 1 meglumine salt at high temperatures; conditions: solution and solid states
[2] = Slurry competition among Freeform Type A/C/M; conditions: slurry competition in EtOAc and ACN, RT and 50° C.
Procedure: The detailed procedures are as following:
1. […] Add 1 mL corresponding solvent.
2. Magnetically stirred at RT or 50° C. for 4 hours. Filter through 0.45 μm PTFE filter to obtain clear solution.
4. Magnetically stirred at RT or 50° C. for 4 days. Tested XRPD of the wet cake.

[3] = pH solubility in pH 1.0-8.0 buffers at RT; conditions: thermodynamic from solid; for solubility at 24 h: LOQ = 0.0001 mg/mL; for solubility: pH buffers, 2 and 24 hours
Procedure: The procedures were listed below:
1. […] Add 2 ml, of the corresponding medium.
2. Mixed well and stirred at RT (1000 rpm). Check the pH and adjust it back to the target pH after dosing.
3. Sampled after 2 hours and 24 hours. The supernatant was isolated by centrifugation (12000 rpm, 5 min) and filtration (0.22 μm, PTFE) for pH and HPLC test.

[4] = Hygroscopicity by DVS at 25° C.
Procedure: DVS was measured via a SMS (Surface Measurement Systems) DVS Intrinsic. The relative humidity at 25° C. were calibrated against deliquescence point of LiCl, Mg(NO3)2 and KCl.

[5] = Kinetic solubility in water and bio-relevant media (SGF, FaSSIF, FeSSIF) at 37° C.; conditions: for S: Solubility: calculated by freeform; for FC: Form change: residual solids by XRPD
Procedure: Add 4 mL of medium (H2O, SGF, FaSSIF and FeSSIF). • Rolled at 37° C. (˜25 rpm). Sampling at 1, 2, 4 and 24 hrs. • At each time-point, sampled 0.8 mL of solution or suspension into a centrifuge tube prior to centrifugation (12000 rpm, 37° C., 5 min) and filtration through 0.45 μm PTFE membrane. • Tested pH and concentration for the filtrate. Analyze residual solids by XRPD.
0.1 g of NaCl and 0.05 g of Triton X-100 were weighed into a 50-mL volumetric flask. Purified water was added to dissolve the solid. 67.5 μL HCl (38%, 12M) was added after the solid was dissolved completely. pH was then adjusted to 1.8 using HCl (1 M) or NaOH (1 M). Purified water was added to the volume.
(§1) 0.17 g of anhydrous NaH2PO4, 0.021 g of NaOH and 0.31 g of NaCl were weighed into a 50-mL volumetric flask. ˜48 mL purified water was added to dissolve the solid. pH was adjusted to 6.5 using 1M HCl or 1M NaOH. Purified water was then added to the volume. 0.11 g of SIF powder was added into the volumetric flask.
as §1, with “0.41 mL” for “0.17 g”, “acetic acid, 0.20” for “anhydrous NaH2PO4, 0.021”, “0.59” for “0.31”, “5.0” for “6.5”, “0.56” for “0.11”

[6] = Solid state stability at 25° C./60% RH and 40° C./75% RH for 1 week
Procedure: Each sample was added into a glass vial, sealed by parafilm with several holes, and kept under tested conditions. After one week, samples were taken for XRPD and HPLC purity test.

N#Cc1ccc(COc2cccc(C3CCN(Cc4nc5ccc(C(=O)O)cc5n4Cc4cncs4)CC3)n2)c(F)c1 [Compound 1 meglumine salt]
chemical stability [1]: generally stable

N#Cc1ccc(COc2cccc(C3CCN(Cc4nc5ccc(C(=O)O)cc5n4Cc4cncs4)CC3)n2)c(F)c1 [Freeform Type C]
thermodynamic stability relationship among freeform anhydrates [2]: thermodynamically more stable anhydrate; also recorded: thermodynamically more stable form
solubility at 24 h ([3]; pH 1.0 buffer, pH 1, aqueous buffer): 130 µg/mL (≈ 223 µM)
solubility at 24 h ([3]; pH 2.0 buffer, pH 2, aqueous buffer): 17 µg/mL (≈ 29.2 µM)
solubility ([3]; pH 1, aqueous buffer, pH 1.0 buffer): ≥ 130 µg/mL
solubility ([3]; pH 2, aqueous buffer, pH 2.0˜8.0 buffers): ≤ 34 µg/mL
water uptake (DVS) ([4]; 25° C./80% RH): 0.12%
hygroscopicity ([4]; DVS, 25° C.): non-hygroscopic
Water uptake at 25° C./80% RH ([4]; DVS, 25° C./80% RH): 0.12 wt %
For change after DVS ([4]; XRPD after DVS test): No
form change after DVS test (XRPD) ([4]; after DVS test): no form change
S: Solubility ([5]; FaSSIF, 37° C., 1 hr): 2 µg/mL
FC: Form change ([5]; FaSSIF, 37° C., 1 hr): No
S: Solubility ([5]; FaSSIF, 37° C., 2 hrs): 7 µg/mL
FC: Form change ([5]; FaSSIF, 37° C., 2 hrs): No
S: Solubility ([5]; FaSSIF, 37° C., 4 hrs): 5 µg/mL
FC: Form change ([5]; FaSSIF, 37° C., 4 hrs): No
S: Solubility ([5]; FaSSIF, 37° C., 24 hrs): 3 µg/mL
FC: Form change ([5]; FaSSIF, 37° C., 24 hrs): No
FC: Form change ([5]; FeSSIF, 37° C., 1 hr): No
FC: Form change ([5]; FeSSIF, 37° C., 2 hrs): No
FC: Form change ([5]; FeSSIF, 37° C., 4 hrs): No
S: Solubility ([5]; FeSSIF, 37° C., 24 hrs): 8 µg/mL
FC: Form change ([5]; FeSSIF, 37° C., 24 hrs): No
S: Solubility ([5]; H2O, 37° C., 1 hr): 20 µg/mL
FC: Form change ([5]; H2O, 37° C., 1 hr): No
S: Solubility ([5]; H2O, 37° C., 2 hrs): 27 µg/mL
FC: Form change ([5]; H2O, 37° C., 2 hrs): No
S: Solubility ([5]; H2O, 37° C., 4 hrs): 20 µg/mL
FC: Form change ([5]; H2O, 37° C., 4 hrs): No
S: Solubility ([5]; H2O, 37° C., 24 hrs): 8 µg/mL
FC: Form change ([5]; H2O, 37° C., 24 hrs): No
S: Solubility ([5]; SGF, 37° C., 1 hr): 83 µg/mL
FC: Form change ([5]; SGF, 37° C., 1 hr): No
S: Solubility ([5]; SGF, 37° C., 2 hrs): 72 µg/mL
FC: Form change ([5]; SGF, 37° C., 2 hrs): No
S: Solubility ([5]; SGF, 37° C., 4 hrs): 75 µg/mL
FC: Form change ([5]; SGF, 37° C., 4 hrs): No
S: Solubility ([5]; SGF, 37° C., 24 hrs): 78 µg/mL
FC: Form change ([5]; SGF, 37° C., 24 hrs): No
form change of residual solids (XRPD) after solubility test ([5]; all the media (H2O, SGF, FaSSIF, FeSSIF), after 24 hrs): No form change
solubility compared with the other selected salts ([5]; all the media, 37° C.): lowest solubility
Form change ([6]; 25° C./60% RH/Open/1 week): No
Purity ([6]; 25° C./60% RH/Open/1 week): 96.58 Area %
solid-state stability: form change and purity decrease ([6]; 25° C./60% RH/open and 40° C./75% RH/open, 1 week): no form change or significant purity decrease
Form change ([6]; 40° C./75% RH/Open/1 week): No
Purity ([6]; 40° C./75% RH/Open/1 week): 96.69 Area %
Purity ([6]; Initial): 96.59 Area %
